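96-well plates; 48 h exposure; 5 concentrations. Endpoints by linear interpolation between flanking doses. Not reached: highest tested concentration assigned. GI50 = concentration required for 50% inhibition of growth. TGI: total growth inhibition.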
Assays:
Assay in all cases: inhibition of tumour cell growth, NCI panel, 48 h
EKVX NSCLC = test system: EKVX NSCLC
HOP-92 NSCLC = test system: HOP-92 NSCLC
IGROV1 ovarian = test system: IGROV1 ovarian
MALME-3M melanoma = test system: MALME-3M melanoma
MDA-MB-435 = test system: MDA-MB-435
SF-268 CNS = test system: SF-268 CNS
SF-539 CNS = test system: SF-539 CNS
TK-10 renal = test system: TK-10 renal
UACC-62 melanoma = test system: UACC-62 melanoma
UO-31 renal = test system: UO-31 renal

Row | Compound | GI50 (EKVX NSCLC) | TGI (EKVX NSCLC) | GI50 (HOP-92 NSCLC) | TGI (HOP-92 NSCLC) | GI50 (IGROV1 ovarian) | TGI (IGROV1 ovarian) | GI50 (MALME-3M melanoma) | TGI (MALME-3M melanoma) | GI50 (MDA-MB-435) | TGI (MDA-MB-435) | GI50 (SF-268 CNS) | TGI (SF-268 CNS) | GI50 (SF-539 CNS) | TGI (SF-539 CNS) | GI50 (TK-10 renal) | TGI (TK-10 renal) | GI50 (UACC-62 melanoma) | TGI (UACC-62 melanoma) | GI50 (UO-31 renal) | TGI (UO-31 renal)
1 | COc1ccc2c(c1)[C@@]1(C)CCC3c4ccc(O)cc4CCC3C1C2 (some centres undefined) | 17.6 µM | 33.2 µM | 17200 nM | 33.9 µM | 20.6 µM | 48.2 µM | 18.7 µM | 34.8 µM | 15 µM | 31 µM | 16.3 µM | 32.6 µM | 20300 nM | 38.9 µM | 14 µM | 29 µM | 17.6 µM | 32.9 µM | 12.8 µM | 30.9 µM
2 | Oc1cc(Cl)ccc1Cc1ccc(Cl)cc1O | 5.56 µM | 36 µM | 2670 nM | 8.11 µM | 12.5 µM | 31.2 µM | 4.32 µM | 19.2 µM | 5.37 µM | 24.5 µM | 9.44 µM | 27.7 µM | 11400 nM | 25.4 µM | 17 µM | 34.8 µM | 4.9 µM | 16.3 µM | 4.89 µM | 20.1 µM
3 | O=C1OCC2=C1C(c1cccc(C(F)(F)F)c1)c1cc3c(cc1N2CCO)CCC3 (centres undefined) | 0.278 µM | 9.52 µM | 1740 nM | 10.3 µM | 0.312 µM | 8.25 µM | 0.714 µM | 10.5 µM | 0.05 µM | 0.159 µM | 0.266 µM | 7.15 µM | 132 nM | 0.46 µM | 0.359 µM | 10.9 µM | 0.174 µM | 9.15 µM | 0.323 µM | 9.01 µM
4 | COc1cc2ncn(-c3cc(OCc4ccccc4S(C)(=O)=O)c(C#N)s3)c2cc1OC | > 25 µM | > 25 µM | > 14200 nM | > 25 µM | > 25 µM | > 25 µM | > 25 µM | > 25 µM | > 25 µM | > 25 µM | > 22.7 µM | > 25 µM | > 25000 nM | > 25 µM | > 25 µM | > 25 µM | > 25 µM | > 25 µM | > 25 µM | > 25 µM
5 | Cc1ccc(/C(=C/C=C(C#N)C#N)Sc2ccccn2)cc1 | 14.6 µM | 31.1 µM | 12600 nM | 31.7 µM | 4.79 µM | 17.4 µM | 4.09 µM | 17.3 µM | 4.79 µM | 13.3 µM | 3.37 µM | 12.3 µM | 2080 nM | 6.44 µM | 3.02 µM | 12.1 µM | 2.51 µM | 7.23 µM | 3.21 µM | 
6 | Cc1ccc2nc(N/N=C/c3cccc(C)n3)cc(C)c2c1 |  | 35.7 µM |  | 37.2 µM |  | 32 µM |  | 30.3 µM |  | 32 µM |  | 38.7 µM |  | 38.3 µM |  | 30.4 µM |  | 29.8 µM |  | 41.3 µM
7 | Cc1cn2c(=O)n(c1=O)Cc1ccccc1C2 | > 100 µM | > 100 µM | > 100000 nM | > 100 µM | 41.7 µM | > 100 µM | > 100 µM | > 100 µM | > 100 µM | > 100 µM | 38.6 µM | > 100 µM | > 100000 nM | > 100 µM | > 100 µM | > 100 µM | 63.1 µM | > 100 µM | 32.3 µM | > 100 µM
8 | COc1cc(-c2n/c(=C\c3c(O)[nH]c4ccccc34)cc3c2=Nc2ccccc2-3)cc(OC)c1OC | > 24.9 µM | > 100 µM | 385 nM | 6.28 µM | 2 µM | > 24.5 µM | 0.448 µM | > 100 µM | 1.68 µM | 6.48 µM | 1.39 µM | > 100 µM | 783 nM | 7.83 µM | 2.18 µM | 25 µM | 0.707 µM | > 100 µM | 2.5 µM | > 100 µM
9 | COc1ccc2c(c1)C(=O)c1c-2n(CCCN2CCOCC2)c(=O)c2cc([N+](=O)[O-])ccc12 | 0.068 µM | 12 µM | < 10 nM | < 0.01 µM | < 0.01 µM | 25.7 µM | < 0.0117 µM | 0.779 µM | < 0.01 µM | 11 µM | < 0.01 µM | > 100 µM | < 10 nM | < 0.01 µM | 0.0623 µM | 17.7 µM | < 0.01 µM | 0.0291 µM | < 0.01 µM | 0.0572 µM
10 | COc1ccc(C(=O)CC(c2ccc(OC)c(OC)c2)c2c(O)c3ccccc3oc2=O)cc1OC (centres undefined) |  | > 100 µM |  | > 100 µM |  | > 100 µM |  | > 100 µM |  | > 100 µM |  | > 100 µM |  | > 100 µM |  | > 100 µM |  | > 100 µM |  | > 100 µM

Source: PubChem BioAssay (NCI)
